Measured values taken from patent US8969387B2, “Pyrrole compounds” (Takeda Pharmaceutical Company Limited, priority 2008, dated 2015).
Structures can show the parent of a compound that is named as a salt.

tested on: Caspase-3/7 activity in HepG2 cells; experiment: Caspase-3/7 activity test; assay type: cell-based, human; details: HepG2, 100 μM, one day; relative to Staurosporine maximum (100%) and no test reagent (0%)
Description: Human liver cancer-derived cell line HepG2 (ATCC No. HB-8065) was passaged using Dulbecco's Modified Eagle medium (DMEM; Invitrogen) containing 10% fetal bovine serum (FBS; TRACE SCIENTIFIC LTD.), 1 mmol/L sodium pyruvate (Invitrogen), 2 mmol/L L-glutamine (Invitrogen), 50 IU/mL penicillin (Invitrogen) and 50 μg/mL streptomycin (Invitrogen) at 5% CO2, 37° C. The test reagent was prepared with DMSO to 10 mM, and further diluted with DMEM medium containing 0.5% FBS, 1 mmol/L sodium pyruvate, 2 mmol/L L-glutamine, 50 IU/mL penicillin and 50 μg/mL streptomycin to a final concentration of DMSO of 0.1%. HepG2 (2×10^4 cells/well) was cultured on a 96 well white plate (Costar) with the test reagent at 5% CO2, 37° C. After culture for one day, the intracellular ATP content was measured using ATPLite™ (PerkinElmer Life Sciences). The results are shown in Table 4 (n23, average value±SD) as a relative value (%) to control (without addition of drug).
The Caspase-3/7 activity in the cells cultured for one day by a method similar to that in Experimental Example 3 was measured using Caspase-Glo 3/7 Assay (Promega). The results are shown in Table 4 (n≧3, average value SD) as relative activity (%) of each reagent based on the maximum value of Caspase-3/7 activity when exposed to Staurosporine (100%), and the activity without addition of a test reagent (0%).

Row | SMILES | Caspase-3/7 activity (%, 100 μM) [%]
1 | CNCc1cn(S(=O)(=O)c2cc(C)ccn2)c(-c2cccnc2F)c1F [Example 2, 1-{4-Fluoro-5-(2-fluoropyridin-3-yl)-1-[(4-methylpyridin-2-yl)sulfonyl]-1H-pyrrol-3-yl}-N-methylmethanamine hydrochloride] | −1.1
2 | CNCc1cn(S(=O)(=O)c2ccc(F)cn2)c(-c2cccnc2F)c1F [Example 3, 1-{4-Fluoro-5-(2-fluoropyridin-3-yl)-1-[(5-fluoropyridin-2-yl)sulfonyl]-1H-pyrrol-3-yl}-N-methylmethanamine hydrochloride] | −0.5
3 | CNCc1cn(S(=O)(=O)c2cc(OC)ccn2)c(-c2cccnc2F)c1F [Example 4, 1-{4-Fluoro-5-(2-fluoropyridin-3-yl)-1-[(4-methoxypyridin-2-yl)sulfonyl]-1H-pyrrol-3-yl}-N-methylmethanamine hydrochloride] | −0.6
4 | CNCc1cn(S(=O)(=O)c2cncc(F)c2)c(-c2cccnc2F)c1F [Example 5, 1-{4-Fluoro-5-(2-fluoropyridin-3-yl)-1-[(5-fluoropyridin-3-yl)sulfonyl]-1H-pyrrol-3-yl}-N-methylmethanamine hydrochloride] | 0.3
5 | CNCc1cn(S(=O)(=O)c2ccc(C)nc2)c(-c2cccnc2F)c1F [Example 8, 1-{4-Fluoro-5-(2-fluoropyridin-3-yl)-1-[(6-methylpyridin-3-yl)sulfonyl]-1H-pyrrol-3-yl}-N-methylmethanamine 0.5 fumarate] | 2.4
6 | CNCc1cn(S(=O)(=O)c2ccc(OC)cn2)c(-c2cccnc2F)c1F [Example 10, 1-{4-Fluoro-5-(2-fluoropyridin-3-yl)-1-[(5-methoxypyridin-2-yl)sulfonyl]-1H-pyrrol-3-yl}-N-methylmethanamine hydrochloride] | 0.9
